Results reported in patent US12435037B2, “Acetylsalicylic acid derivative and application thereof” (Zhejiang Hanmai Pharmaceutical Technology Co., Ltd., priority 2018, dated 2025).

Legend:
[1] = Plasma metabolic stability test in 10% monkey plasma diluent; conditions: 37° C.
[2] = system: monkey platelet aggregation; experiment: Inhibitory effect on monkey platelet aggregation after transdermal administration; type: in vivo; conditions: cynomolgus monkeys, transdermal daily for four weeks (70 mg/kg; comparator 60 mg/kg), inducer 1 mM arachidonic acid
Protocol: The dose volume for a monkey was calculated based on its weight. The hair on the monkey's back was shaved, and the drug was evenly applied to the bare skin. The drug was administered continuously every day for four weeks. Blank blood was collected before administration, and blood was collected once a week after administration to detect the platelet aggregation ability (the inducer was 1 mM arachidonic acid).

[3] = Metabolism in 10% diluted plasma, mouse; conditions: 10% diluted mouse plasma
in vitro = conditions: monkey, 10% monkey plasma diluent
[4] = Metabolism in 10% diluted plasma, rat; conditions: 10% diluted rat plasma

- concentration of the parent drug ([1]; 10 min): 3.09 µg/mL
- concentration of the parent drug ([1]; 30 min): undetectable
- Highest acetylsalicylic acid concentration in plasma [3]: BLOQ
- C0 at 0 min, 1 μM/mL (in vitro): 262 µg/mL
- Highest acetylsalicylic acid concentration in plasma [4]: BLOQ
SMILES: CCN(CC)CCOC(=O)c1ccccc1OC(C)=O.Cl
- inhibitory effect on platelet aggregation [2]: cannot inhibit platelet aggregation effectively
- platelet aggregation rate [2]: about 50%
